In brackets after ≈: the same amount, converted by molar mass. Several values for one entry are separate records, joined by “and”; a condition that tells them apart may be missing. Identical values can stand only once. Like-named read-outs stand apart in the source and are kept apart here. Values belong to the compound of their own block, whether it stands above or below them. Where a SMILES comes first, the peptide text is derived from it. [ ]: non-standard residue; d: D form. Ala(6-iPr-benzothiazol-2-yl) = CC(C)c1ccc2nc(C[C@H](N)C(=O)O)sc2c1; Ala(benzothiazol-2-yl) = N[C@@H](Cc1nc2ccccc2s1)C(=O)O; Phe(3-CF3) = N[C@@H](Cc1cccc(C(F)(F)F)c1)C(=O)O; Phe(3,5-F2) = N[C@@H](Cc1cc(F)cc(F)c1)C(=O)O; Phe(3-CN) = N#Cc1cccc(C[C@H](N)C(=O)O)c1; 2Nal = N[C@@H](Cc1ccc2ccccc2c1)C(=O)O; hPhe = N[C@@H](CCc1ccccc1)C(=O)O
What was measured:
NRF2 mRNA = test: qRT-PCR of NRF2 mRNA in THLE2 cells; type: cell-based; settings: THLE2, 10 µM
Text: Total RNA in treated cells was isolated with the RNeasy Mini Kit (Qiagen, Germantown, MD). RNA was reverse transcribed into complementary DNA (cDNA) using high capacity RNA-to-cDNA kit (Applied Biosystems, Carlsbad, California). […] GAPDH was used as an internal reference. […] Error bars correspond to SD from three independent experiments.

DCN3 = target: T1, DCN3 (Homo sapiens, UniProt Q8IWE4); test: Label-free BLI assay, DCN3; type: binding; settings: concentrations up to 10 µM
T1 construct: DCN2 (residues 62–259), DCN3 (residues 86–304), DCN4 (residues 102–292) and DCN5 (residues 47–237); His6-TEV (N, cleaved yes); made in house; host or cells: Rosetta2 cells (E. coli)
T1 sequence (Q8IWE4 86-304): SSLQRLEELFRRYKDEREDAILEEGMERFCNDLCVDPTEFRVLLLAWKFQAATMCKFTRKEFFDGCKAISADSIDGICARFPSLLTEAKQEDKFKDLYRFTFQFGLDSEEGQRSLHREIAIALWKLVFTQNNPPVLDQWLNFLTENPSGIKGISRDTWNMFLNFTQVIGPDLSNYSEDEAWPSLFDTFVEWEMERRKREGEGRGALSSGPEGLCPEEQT

DCN5 = target: T2, DCN5 (Homo sapiens, UniProt Q9BTE7); test: Label-free BLI assay, DCN5; type: binding; settings: concentrations up to 10 µM
T2 construct: DCN2 (residues 62–259), DCN3 (residues 86–304), DCN4 (residues 102–292) and DCN5 (residues 47–237); His6-TEV (N, cleaved yes); made in house; host or cells: Rosetta2 cells (E. coli)
T2 sequence (Q9BTE7 47-237): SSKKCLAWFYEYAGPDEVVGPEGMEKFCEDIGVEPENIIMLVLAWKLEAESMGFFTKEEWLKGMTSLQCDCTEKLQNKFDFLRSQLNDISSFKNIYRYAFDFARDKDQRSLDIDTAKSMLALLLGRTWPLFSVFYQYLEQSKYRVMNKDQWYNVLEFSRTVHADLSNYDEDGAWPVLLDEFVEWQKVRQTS

DCN4 = target: T3, DCN4 (Homo sapiens, UniProt Q92564); test: Label-free BLI assay, DCN4; type: binding; settings: concentrations up to 10 µM
T3 construct: DCN2 (residues 62–259), DCN3 (residues 86–304), DCN4 (residues 102–292) and DCN5 (residues 47–237); His6-TEV (N, cleaved yes); made in house; host or cells: Rosetta2 cells (E. coli)
T3 sequence (Q92564 102-292): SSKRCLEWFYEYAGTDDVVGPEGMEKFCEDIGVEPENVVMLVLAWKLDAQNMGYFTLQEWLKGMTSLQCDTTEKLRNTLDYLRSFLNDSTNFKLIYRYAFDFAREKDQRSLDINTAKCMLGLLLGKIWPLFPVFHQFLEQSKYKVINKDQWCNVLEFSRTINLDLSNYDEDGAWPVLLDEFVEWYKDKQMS

DCN1 = DCN1 (Homo sapiens, UniProt Q96GG9); test: Competitive fluorescence polarization (FP) binding assay with probe 46, DCN1; set-up: Human DCN1 (residues 58–259) were cloned into a pDEST17 plasmid containing an N-terminal His6 tag; made in house; host or cells: Rosetta2 cells (E. coli); settings: for Ki: competitive FP, probe 46 5 nM, DCN1 50 nM
DCN1, sequence (Q96GG9 58-259): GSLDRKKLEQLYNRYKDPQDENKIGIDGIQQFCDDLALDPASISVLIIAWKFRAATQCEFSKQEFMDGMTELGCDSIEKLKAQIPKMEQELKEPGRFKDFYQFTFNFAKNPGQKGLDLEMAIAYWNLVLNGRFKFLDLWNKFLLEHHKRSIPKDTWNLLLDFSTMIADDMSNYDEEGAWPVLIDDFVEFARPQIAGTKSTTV
Procedure: The FP competitive binding experiments were performed to determine the binding affinities of all synthesized DCN1 inhibitors. […] Serial dilutions of DCN1 or DCN2 protein were mixed with the probe (46) to a final volume of 200 μl in the assay buffer (100 mM phosphate buffer, pH = 6.5, with 0.02% Tween-20 and 2% DMSO). The final probe concentration was 5 nM in both DCN1 and DCN2 assays. Plates were incubated at room temperature for 30 min with gentle shaking for equilibrium.
The IC50 and Ki values of compounds were determined in competitive binding experiments. Mixtures of compounds in DMSO (4 μl) and of pre-incubated protein/probe complex solution (196 μl) in the assay buffer were added into assay plates that were incubated at room temperature for 30 min with gentle shaking. Final concentrations of DCN1 protein and fluorescent probe (46) were 50 and 5 nM, respectively. […] FP values were measured as described above. IC50 values were determined by nonlinear regression fitting of the competition curves using the dose response inhibition equation (four parameters, variable slopes) included in the Prism/GraphPad software. K i values were calculated using the methods described earlier.

[1] = thermodynamic from solid
Procedure: (§1) The equilibrium aqueous solubility of an individual compound at different pH values was determined with a small-scale shake-flask method in Eppendorf tubes. Compounds were added as powder in excess to Britton-Robinson buffer at pH 2.0 or phosphate buffer at pH 7.4 until heterogeneous suspensions were obtained. Suspensions containing excessive compound powder were sonicated in a water bath for 30 min followed by incubation at room temperature with shaking for 24 h to achieve thermodynamic equilibrium. […] Supernatants obtained were filtered using Millipore MultiScreen filter plates equipped with 0.45 µm membranes. Compound concentrations in the saturated solutions were measured by UV spectroscopy at the maximum absorption wavelengths of each compound that were pre-determined by a spectrum scan.

[2] = Equilibrium aqueous solubility, small-scale shake-flask method; settings: for solubility / solubility at 24 h: thermodynamic from solid
Procedure: as §1

[3] = Britton-Robinson buffer, pH 2.02, aqueous buffer
[4] = phosphate buffer, pH 7.4, aqueous buffer

SMILES: CCC(=O)N[C@H](Cc1nc2ccc(C(C)C)cc2s1)C(=O)N[C@@H](CNC(=O)CCN1CCOCC1)C1CCCCC1 [DI-591DD]
- mRNA level of NRF2 (in words) (NRF2 mRNA): no effect
- binding to DCN3 (in words) (DCN3): no appreciable binding
- binding to DCN5 (in words) (DCN5): no appreciable binding
- binding to DCN4 (in words) (DCN4): no appreciable binding

SMILES: CC[C@H](C)[C@H](NC(=O)[C@H](CCSC)NC(C)=O)C(=O)N[C@@H](CCCCN)C(=O)N[C@@H](CC(C)C)C(N)=O [compound 9] (Ac-MIKL-NH2)
- Ki (DCN1): 50 µM

SMILES: CC[C@H](C)[C@H](NC(=O)[C@H](CCc1ccccc1)NC(C)=O)C(=O)N[C@@H](CCCCN)C(=O)N[C@@H](CC(C)C)C(N)=O [compound 12] (Ac-[hPhe]IKL-NH2)
- factor by which binding affinity to DCN1 is decreased (DCN1; homophenylalanine in place of Met1, compared with 9/11): 6

SMILES: CC[C@H](C)[C@H](NC(=O)[C@H](Cc1cc(F)cc(F)c1)NC(C)=O)C(=O)N[C@@H](CCCCN)C(=O)N[C@@H](CC(C)C)C(N)=O [compound 20] (Ac-[Phe(3,5-F2)]IKL-NH2)
- Ki (DCN1): 82 ± 9.1 µM

SMILES: CC[C@H](C)[C@H](NC(=O)[C@H](Cc1c[nH]c2ccccc12)NC(C)=O)C(=O)N[C@@H](CCCCN)C(=O)N[C@@H](CC(C)C)C(N)=O [compound 21] (Ac-WIKL-NH2)
- Ki (DCN1): 82 µM

SMILES: CC[C@H](C)[C@H](NC(=O)[C@H](Cc1nc2ccc(Cl)cc2s1)NC(C)=O)C(=O)N[C@@H](CCCCN)C(=O)N[C@@H](CC(C)C)C(N)=O [compound 26]
- times more potent than 24 in binding to DCN1 (DCN1; comparator 24): 4 times

SMILES: CC[C@H](C)[C@H](NC(=O)[C@H](Cc1nc2ccc(C(C)C)cc2s1)NC(C)=O)C(=O)N[C@@H](CCCCN)C(=O)N[C@@H](CC(C)C)C(N)=O [compound 27] (Ac-[Ala(6-iPr-benzothiazol-2-yl)]IKL-NH2)
- aqueous solubility (in words) [2]: poor
- solubility ([2]; pH 2.02, aqueous buffer): 227 µM (≈ 150 µg/mL)
- solubility ([2]; pH 7.4, aqueous buffer): 31 µM (≈ 20.5 µg/mL)
- times more potent than 9 in binding to DCN1 (DCN1; comparator tetrapeptide 9): > 10,000 times
- Ki (DCN1): 0.0047 ± 0.0014 µM

SMILES: CC[C@H](C)[C@H](NC(=O)[C@H](Cc1nc2ccc(C(C)C)cc2s1)NC(C)=O)C(=O)N[C@@H](CCCCN)C(N)=O [compound 28]
- solubility ([2]; pH 2.02, aqueous buffer): > 20000 µM
- solubility ([2]; pH 7.4, aqueous buffer): 7470 µM (≈ 4090 µg/mL)
- times less potent than 27 in binding to DCN1 (DCN1; comparator 27): 37 times
- Ki (DCN1): 0.174 ± 0.023 µM

SMILES: CC[C@H](C)[C@@H](CN)NC(=O)[C@H](Cc1nc2ccc(C(C)C)cc2s1)NC(C)=O [compound 30]
- solubility at 24 h ([2]; Britton-Robinson buffer, pH 2, aqueous buffer): > 20000 µM
- solubility at 24 h [2, 3]: > 20000 µM
- solubility at 24 h [2, 4]: > 20000 µM
- Ki (DCN1): 0.066 µM and 0.0664 µM

Results, then the compound that gave them:

- binding to DCN1 (in words) (DCN1; at concentrations up to 1,000 µM): no appreciable binding
- Ki (DCN1): > 1000 µM
SMILES: CC[C@H](C)[C@H](NC(=O)[C@H](CCSC)NC(C)=O)C(=O)N[C@@H](CCCCN)C(N)=O [compound 10] (Ac-Met-Ile-Lys-NH2)

- Ki (DCN1): > 1000 µM
SMILES: CC[C@H](C)[C@H](NC(=O)[C@H](Cc1cccc(C#N)c1)NC(C)=O)C(=O)N[C@@H](CCCCN)C(=O)N[C@@H](CC(C)C)C(N)=O [compound 16] (Ac-[Phe(3-CN)]IKL-NH2)

- Ki (DCN1): > 1000 µM
SMILES: CC[C@H](C)[C@H](NC(=O)[C@H](Cc1cccc(C(F)(F)F)c1)NC(C)=O)C(=O)N[C@@H](CCCCN)C(=O)N[C@@H](CC(C)C)C(N)=O [compound 17] (Ac-[Phe(3-CF3)]IKL-NH2)

- times more potent than 11 in binding to DCN1 (DCN1; comparator 11): 11 times
SMILES: CC[C@H](C)[C@H](NC(=O)[C@H](Cc1ccc2ccccc2c1)NC(C)=O)C(=O)N[C@@H](CCCCN)C(=O)N[C@@H](CC(C)C)C(N)=O [compound 23] (Ac-[2Nal]IKL-NH2)

- solubility ([1]; pH 2.02, aqueous buffer): 1480 µM (≈ 912 µg/mL)
- solubility ([1]; pH 7.4, aqueous buffer): 251 µM (≈ 155 µg/mL)
SMILES: CC[C@H](C)[C@H](NC(=O)[C@H](Cc1nc2ccccc2s1)NC(C)=O)C(=O)N[C@@H](CCCCN)C(=O)N[C@@H](CC(C)C)C(N)=O [compound 24] (Ac-[Ala(benzothiazol-2-yl)]IKL-NH2)

- times less potent than 24 in binding to DCN1 (DCN1; comparator 24): 17 times
SMILES: CC[C@H](C)[C@H](NC(=O)[C@H](Cc1nc2cc(Cl)ccc2s1)NC(C)=O)C(=O)N[C@@H](CCCCN)C(=O)N[C@@H](CC(C)C)C(N)=O [compound 25]

- solubility at 24 h [2, 3]: 1050 µM (≈ 440 µg/mL)
- solubility at 24 h [2, 4]: 1280 µM (≈ 535 µg/mL)
- Ki (DCN1): 0.292 µM
SMILES: CC[C@H](C)[C@H](NC(=O)[C@H](Cc1nc2ccc(C(C)C)cc2s1)NC(C)=O)C(N)=O [compound 29]

Reference: paper PMC5658359, “A potent small-molecule inhibitor of the DCN1-UBC12 interaction that selectively blocks cullin 3 neddylation” (Nature Communications, 2017)
